PubChem BioAssay AID1919005 (Molecular Pharmacology Branch, DTP, NCI, 2023)

System: 855422-203-R-J1-PDC complex spheroid growth
Assay: Anticancer human tumor 855422-203-R-J1-PDC patient-derived bladder carcinoma cell line growth inhibition [AhR]
Conditions: for IC50: curve of first compound; for viability, T/C: stronger effect = lower value; active = viability on the fitted dose curve at most 10% of control; inactive = the rest
How it was run: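 Spheroids combined tumor cells with HUVEC endothelial cells and human MSCs as stroma. AhR antagonists were paired with standard or investigational drugs, each dosed in half-log steps down from near clinical Cmax, or from 10 microM where Cmax was unknown.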

[1] = second compound 0.1 µM, first compound 0.00949 µM
[2] = second compound 0.1 µM, first compound 0.03 µM
[3] = second compound 0.1 µM, first compound 0.0949 µM
[4] = second compound 0.1 µM, first compound 0.3 µM
[5] = second compound 0.1 µM, first compound 0.949 µM
[6] = second compound 0.1 µM, first compound 3 µM
[7] = second compound 0.316 µM, first compound 0.00949 µM
[8] = second compound 0.316 µM, first compound 0.03 µM
[9] = second compound 0.316 µM, first compound 0.0949 µM
[10] = second compound 0.316 µM, first compound 0.3 µM
[11] = second compound 0.316 µM, first compound 0.949 µM
[12] = second compound 0.316 µM, first compound 3 µM
[13] = second compound 1 µM, first compound 0.00949 µM
[14] = second compound 1 µM, first compound 0.03 µM
[15] = second compound 1 µM, first compound 0.0949 µM
[16] = second compound 1 µM, first compound 0.3 µM
[17] = second compound 1 µM, first compound 0.949 µM
[18] = second compound 1 µM, first compound 3 µM
[19] = second compound 3.16 µM, first compound 0.00949 µM
[20] = second compound 3.16 µM, first compound 0.03 µM
[21] = second compound 3.16 µM, first compound 0.0949 µM
[22] = second compound 3.16 µM, first compound 0.3 µM
[23] = second compound 3.16 µM, first compound 0.949 µM
[24] = second compound 3.16 µM, first compound 3 µM
[25] = second compound 10 µM, first compound 0.00949 µM
[26] = second compound 10 µM, first compound 0.03 µM
[27] = second compound 10 µM, first compound 0.0949 µM
[28] = second compound 10 µM, first compound 0.3 µM
[29] = second compound 10 µM, first compound 0.949 µM
[30] = second compound 10 µM, first compound 3 µM
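Note: spheroids exposed to agents for seven days before readout.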
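Throughout, for viability, T/C: percent of DMSO vehicle control luminescence viability.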

CC1COCCN1c1cc(C2(S(C)(=N)=O)CC2)nc(-c2ccnc3[nH]ccc23)n1 (stereo not given) + Cc1cncc(-c2nc(NCCc3c[nH]c4ccccc34)c3ncn(C(C)C)c3n2)c1
6720 nM: IC50 (second compound 0.316 µM)
< 31.6 nM: IC50 (second compound 10 µM)
6270 nM: IC50 (second compound 1 µM)
inactive: viability, T/C (second compound 0.1 µM, first compound 0.0316 µM) 96.7% | viability, T/C (second compound 0.1 µM, first compound 0.1 µM) 88.9% | viability, T/C (second compound 0.1 µM, first compound 0.316 µM) 83.1% | viability, T/C (second compound 0.1 µM, first compound 1 µM) 98.6% | viability, T/C (second compound 0.1 µM, first compound 3.16 µM) 114% | viability, T/C (second compound 0.1 µM, first compound 10 µM) 25.1% | viability, T/C (second compound 0.316 µM, first compound 0.0316 µM) 84.1% | viability, T/C (second compound 0.316 µM, first compound 0.1 µM) 81.6% | viability, T/C (second compound 0.316 µM, first compound 0.316 µM) 79.7% | viability, T/C (second compound 0.316 µM, first compound 1 µM) 98.3% | viability, T/C (second compound 0.316 µM, first compound 3.16 µM) 110% | viability, T/C (second compound 0.316 µM, first compound 10 µM) 28.4% | viability, T/C (second compound 1 µM, first compound 0.0316 µM) 80.4% | viability, T/C (second compound 1 µM, first compound 0.1 µM) 81.8% | viability, T/C (second compound 1 µM, first compound 0.316 µM) 66.9% | viability, T/C (second compound 1 µM, first compound 1 µM) 79.1% | viability, T/C (second compound 1 µM, first compound 3.16 µM) 92% | viability, T/C (second compound 1 µM, first compound 10 µM) 29.5% | viability, T/C (second compound 3.16 µM, first compound 0.0316 µM) 69% | viability, T/C (second compound 3.16 µM, first compound 0.1 µM) 70.7% | viability, T/C (second compound 3.16 µM, first compound 0.316 µM) 74.2% | viability, T/C (second compound 3.16 µM, first compound 1 µM) 48.4% | viability, T/C (second compound 3.16 µM, first compound 3.16 µM) 44.6% | viability, T/C (second compound 3.16 µM, first compound 10 µM) 17.9% | viability, T/C (second compound 10 µM, first compound 0.0316 µM) 23.8% | viability, T/C (second compound 10 µM, first compound 0.1 µM) 27.1% | viability, T/C (second compound 10 µM, first compound 0.316 µM) 12.5% | viability, T/C (second compound 10 µM, first compound 1 µM) 9.69%
1650 nM: IC50 (second compound 3.16 µM)
active: viability, T/C (second compound 10 µM, first compound 3.16 µM) 8.26% | viability, T/C (second compound 10 µM, first compound 10 µM) 5.32%
6690 nM: IC50 (second compound 0.1 µM)

CCN(c1cc(-c2ccc(CN3CCOCC3)cc2)cc(C(=O)NCc2c(C)cc(C)[nH]c2=O)c1C)C1CCOCC1 + Cc1cncc(-c2nc(NCCc3c[nH]c4ccccc34)c3ncn(C(C)C)c3n2)c1
> 3000 nM: IC50 (second compound 0.1 µM) | IC50 (second compound 0.316 µM) | IC50 (second compound 1 µM) | IC50 (second compound 3.16 µM)
active: viability, T/C [28] 1.7% | viability, T/C [29] 4.26% | viability, T/C [30] 0.96%
inactive: viability, T/C [1] 90.5% | viability, T/C [2] 84.7% | viability, T/C [3] 92% | viability, T/C [4] 83.1% | viability, T/C [5] 85.3% | viability, T/C [6] 70.7% | viability, T/C [7] 88.9% | viability, T/C [8] 78.3% | viability, T/C [9] 86.6% | viability, T/C [10] 74.2% | viability, T/C [11] 76.2% | viability, T/C [12] 75.7% | viability, T/C [13] 89.4% | viability, T/C [14] 85.7% | viability, T/C [15] 74.8% | viability, T/C [16] 75% | viability, T/C [17] 76.1% | viability, T/C [18] 73.7% | viability, T/C [19] 74.8% | viability, T/C [20] 85.5% | viability, T/C [21] 64.1% | viability, T/C [22] 51.7% | viability, T/C [23] 69% | viability, T/C [24] 66.3% | viability, T/C [25] 24.9% | viability, T/C [26] 32.4% | viability, T/C [27] 15.5%
< 9.49 nM: IC50 (second compound 10 µM)

Nc1ncn(C2CC(O)C(CO)S2)c(=O)n1 (stereo not given) + Cc1cncc(-c2nc(NCCc3c[nH]c4ccccc34)c3ncn(C(C)C)c3n2)c1
1.28 nM: IC50 (second compound 3.16 µM)
< 0.949 nM: IC50 (second compound 10 µM)
inactive: viability, T/C (second compound 0.1 µM, first compound 0.000949 µM) 92.3% | viability, T/C (second compound 0.1 µM, first compound 0.003 µM) 101% | viability, T/C [1] 92.9% | viability, T/C [2] 90.4% | viability, T/C [3] 84.7% | viability, T/C [4] 72.2% | viability, T/C (second compound 0.316 µM, first compound 0.000949 µM) 90.1% | viability, T/C (second compound 0.316 µM, first compound 0.003 µM) 83.8% | viability, T/C [7] 77.4% | viability, T/C [8] 85% | viability, T/C [9] 78.2% | viability, T/C [10] 69.8% | viability, T/C (second compound 1 µM, first compound 0.000949 µM) 74.1% | viability, T/C (second compound 1 µM, first compound 0.003 µM) 88.2% | viability, T/C [13] 77.3% | viability, T/C [14] 73.6% | viability, T/C [15] 79.1% | viability, T/C [16] 77.1% | viability, T/C (second compound 3.16 µM, first compound 0.000949 µM) 49.1% | viability, T/C (second compound 3.16 µM, first compound 0.003 µM) 51.8% | viability, T/C [19] 41.9% | viability, T/C [20] 25.1% | viability, T/C [21] 42% | viability, T/C [22] 37.5% | viability, T/C (second compound 10 µM, first compound 0.000949 µM) 28.3% | viability, T/C (second compound 10 µM, first compound 0.003 µM) 26.9% | viability, T/C [25] 19.7% | viability, T/C [26] 15.5% | viability, T/C [27] 22.8% | viability, T/C [28] 24.3%
> 300 nM: IC50 (second compound 0.1 µM) | IC50 (second compound 0.316 µM) | IC50 (second compound 1 µM)

O=C(C=Cn1cnc(-c2cc(C(F)(F)F)cc(C(F)(F)F)c2)n1)NNc1cnccn1 + Cc1cncc(-c2nc(NCCc3c[nH]c4ccccc34)c3ncn(C(C)C)c3n2)c1
244 nM: IC50 (second compound 1 µM)
247 nM: IC50 (second compound 0.316 µM)
active: viability, T/C [26] 7.81% | viability, T/C [27] 6.35% | viability, T/C [28] 7.34% | viability, T/C [29] 7.72% | viability, T/C [30] 8.99%
263 nM: IC50 (second compound 0.1 µM)
< 9.49 nM: IC50 (second compound 10 µM)
inactive: viability, T/C [1] 101% | viability, T/C [2] 102% | viability, T/C [3] 162% | viability, T/C [4] 40.8% | viability, T/C [5] 30.8% | viability, T/C [6] 22.6% | viability, T/C [7] 108% | viability, T/C [8] 116% | viability, T/C [9] 128% | viability, T/C [10] 36.3% | viability, T/C [11] 26.3% | viability, T/C [12] 23.3% | viability, T/C [13] 95.3% | viability, T/C [14] 114% | viability, T/C [15] 118% | viability, T/C [16] 37.1% | viability, T/C [17] 30.3% | viability, T/C [18] 25.3% | viability, T/C [19] 83.8% | viability, T/C [20] 95.4% | viability, T/C [21] 106% | viability, T/C [22] 22.2% | viability, T/C [23] 32.2% | viability, T/C [24] 23.9% | viability, T/C [25] 11.4%
201 nM: IC50 (second compound 3.16 µM)
